The test system of assay [1] is T1, Nicotinamide N-methyltransferase (Homo sapiens), P40261 [C165A].
T1 sequence (whole entry): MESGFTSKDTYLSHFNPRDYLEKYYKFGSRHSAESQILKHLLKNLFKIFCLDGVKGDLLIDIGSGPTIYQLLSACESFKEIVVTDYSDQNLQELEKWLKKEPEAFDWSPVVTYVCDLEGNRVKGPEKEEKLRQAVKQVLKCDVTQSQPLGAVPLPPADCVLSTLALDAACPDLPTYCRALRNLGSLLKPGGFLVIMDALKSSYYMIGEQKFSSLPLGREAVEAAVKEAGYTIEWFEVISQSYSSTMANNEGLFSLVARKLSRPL
As to the kind of experiment: Inhibition of NNMT C165A mutant in human 786-O cell lysate using d4-nicotinamide as substrate preincubated for 1 hr followed by substrate and SAM addition measured after 15 to 30 mins by LC-MS analysis.

The target in assay [2] is T2, Nicotinamide N-methyltransferase (Homo sapiens) (UniProt P40261).
T2 sequence (whole entry): T1 sequence (whole entry) with A165C
As to the kind of experiment: Binding affinity to NNMT C165 residue in human 786-O cell lysate at 5 uM incubated for 4 hrs followed by cell lysis by IA-alkyne probe based isoTOP-ABPP analysis.

In assay [3] the target is T2, Nicotinamide N-methyltransferase (Homo sapiens). As to the kind of experiment: Binding affinity to NNMT C115 residue in human 786-O cell soluble proteomic lysate at 5 uM incubated for 1 hr followed by cell lysis by IA-alkyne probe based isoTOP-ABPP analysis relative to control.
Assay [4] has the same target. As to the kind of experiment: Inhibition of SAH-rhodamine binding to NNMT in human 786-O cell soluble proteomic lysate at 2 uM preincubated for 1 hr followed by SAH-rhodamine addition measured after 5 mins by Gel-based ABPP analysis.
Assay [5] has as its target T3, Heme oxygenase 2 (Homo sapiens) (UniProt P30519).
T3 sequence (whole entry): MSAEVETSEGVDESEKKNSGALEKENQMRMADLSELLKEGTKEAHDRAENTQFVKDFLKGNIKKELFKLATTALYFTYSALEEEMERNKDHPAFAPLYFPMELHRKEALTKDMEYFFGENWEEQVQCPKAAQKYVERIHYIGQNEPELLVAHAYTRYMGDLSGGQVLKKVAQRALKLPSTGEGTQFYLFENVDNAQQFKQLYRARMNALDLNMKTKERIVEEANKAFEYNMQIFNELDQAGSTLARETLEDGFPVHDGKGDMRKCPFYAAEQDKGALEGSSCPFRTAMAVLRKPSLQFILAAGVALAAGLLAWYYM
As to the kind of experiment: Binding affinity to HMOX2 cysteine residue in human 786-O cell soluble proteomic lysate at 5 uM incubated for 1 hr followed by cell lysis by IA-alkyne probe based isoTOP-ABPP analysis.

Assay [6] deals with T2, Nicotinamide N-methyltransferase (Homo sapiens). Put plainly: Inhibition of SAH-rhodamine binding to NNMT in human 786-O cell soluble proteomic lysate assessed as ratio of observed rate constant to test compound concentration preincubated for 10 to 40 mins followed by SAH-rhodamine addition measured after 5 mins by Gel-based ABPP analysis.
Assay [7] shares this target. Put plainly: Binding affinity to NNMT C50 residue in human 786-O cell soluble proteomic lysate at 5 uM incubated for 1 hr followed by cell lysis by IA-alkyne probe based isoTOP-ABPP analysis relative to control.
For assay [8], the target named is T4, Cytoskeleton-associated protein 4 (Homo sapiens) (UniProt Q07065).
T4 sequence (whole entry): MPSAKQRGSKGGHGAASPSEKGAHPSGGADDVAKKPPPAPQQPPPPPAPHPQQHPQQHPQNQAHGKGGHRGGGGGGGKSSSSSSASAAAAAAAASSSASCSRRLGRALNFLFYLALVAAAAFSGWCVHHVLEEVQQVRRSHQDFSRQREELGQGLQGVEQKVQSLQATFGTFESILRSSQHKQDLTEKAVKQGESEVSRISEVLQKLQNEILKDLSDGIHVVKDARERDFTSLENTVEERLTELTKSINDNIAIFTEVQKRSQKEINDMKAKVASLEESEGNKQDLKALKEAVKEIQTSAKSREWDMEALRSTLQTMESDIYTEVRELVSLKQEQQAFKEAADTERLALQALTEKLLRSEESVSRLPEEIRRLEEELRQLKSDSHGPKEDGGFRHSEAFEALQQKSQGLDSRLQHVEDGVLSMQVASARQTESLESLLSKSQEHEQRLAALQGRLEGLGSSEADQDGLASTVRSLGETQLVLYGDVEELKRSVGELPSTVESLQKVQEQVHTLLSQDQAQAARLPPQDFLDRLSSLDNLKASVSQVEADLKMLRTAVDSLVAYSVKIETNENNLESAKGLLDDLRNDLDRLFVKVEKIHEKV
As to the kind of experiment: Binding affinity to CKAP4 cysteine residue in human 786-O cell soluble proteomic lysate at 5 uM incubated for 1 hr followed by cell lysis by IA-alkyne probe based isoTOP-ABPP analysis.

The target in assay [9] is T5, Glutathione S-transferase omega-1 (Homo sapiens) (UniProt P78417).
T5 sequence (whole entry): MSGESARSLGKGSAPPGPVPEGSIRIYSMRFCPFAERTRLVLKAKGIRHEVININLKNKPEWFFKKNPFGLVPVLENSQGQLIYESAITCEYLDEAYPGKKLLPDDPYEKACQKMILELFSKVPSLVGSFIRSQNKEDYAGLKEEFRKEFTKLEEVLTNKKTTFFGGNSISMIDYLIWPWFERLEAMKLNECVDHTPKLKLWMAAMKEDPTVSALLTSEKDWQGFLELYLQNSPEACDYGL
Put plainly: Binding affinity to GSTO1 cysteine residue in human 786-O cell soluble proteomic lysate at 5 uM incubated for 1 hr followed by cell lysis by IA-alkyne probe based isoTOP-ABPP analysis.

For assay [10], the target named is T2, Nicotinamide N-methyltransferase (Homo sapiens). Put plainly: Binding affinity to NNMT C165 residue in human 786-O cell soluble proteomic lysate at 5 uM incubated for 1 hr followed by cell lysis by IA-alkyne probe based isoTOP-ABPP analysis relative to control.
The target is the same in assay [11]. As to the kind of experiment: Binding affinity to NNMT C165 residue in human 786-O cell soluble proteomic lysate at 1 to 5 uM incubated for 1 hr followed by cell lysis by IA-alkyne probe based isoTOP-ABPP analysis.
Assay [12] shares this target. As to the kind of experiment: Binding affinity to NNMT C75 residue in human 786-O cell soluble proteomic lysate at 5 uM incubated for 1 hr followed by cell lysis by IA-alkyne probe based isoTOP-ABPP analysis relative to control.
The target of assay [13] is T6, Nicotinamide N-methyltransferase (Homo sapiens, UniProt P40261).
T6 sequence (P40261 whole entry): T1 sequence (whole entry) with A165C
As to the kind of experiment: (§1) Inhibition of SAH-rhodamine binding to NNMT in human 786-O cell soluble proteomic lysate preincubated for 1 hr followed by SAH-rhodamine addition measured after 5 mins by Gel-based ABPP analysis.

Assay [14] addresses T2, Nicotinamide N-methyltransferase (Homo sapiens). The assay is described as §1.
The target of assay [15] is T6, Nicotinamide N-methyltransferase. Put plainly: (§2) Inhibition of NNMT in human 786-O cell lysate using d4-nicotinamide as substrate preincubated for 1 hr followed by substrate and SAM addition measured after 15 to 30 mins by LC-MS analysis.
The target in assay [16] is T2, Nicotinamide N-methyltransferase (Homo sapiens). The assay is described as §2.

Substitutions are numbered along the chain they refer to. pIC50: −log10 of the molar value. The source made the active and inactive calls. No cut-off for these calls is given here.

As usually defined, the pIC50 is the negative decadic logarithm of the IC50, by convention in mol/L. Read a low pIC50 as a high IC50. Consider `CC(C)CCN(C(=O)CCl)c1cc(C(=O)Nc2cccnc2Cl)cc(C(F)(F)F)c1`, for which the inhibition entry in [1] is “inactive”. Also, the result in [2] was inactive. The fold change (FC) in assay [3] was found to be 1; in assay [7], 1.3; in assay [10] it was 20; in assay [12] it was 1.3. In [4], the inhibition result is “Active”. The outcome in assay [5], in assay [8], in assay [9] and in assay [11] was Active. The Ratio in assay [6] is 200 M⁻¹ s⁻¹. The pIC50 in assay [13] was 6.39; in assay [15] it was 6.70. For the same molecule, the inhibition result in assay [14] and in assay [16] was “Dose-dependent effect” each time.

For the origin of these results see ChEMBL document CHEMBL4229400, “Covalent inhibitors of nicotinamide N-methyltransferase (NNMT) provide evidence for target engagement challenges in situ” (Bioorg Med Chem Lett, 2018).
